For 30 molecules, viability results are on record in ChEMBL document CHEMBL5608113, “Targeting of CAF-induced therapy resistance in CRC organoid-stroma co-cultures” (2024).

The structures appear in SMILES notation.

The viability is a read-out of living cells in per cent, often relative to untreated cells.

Holding throughout (type): functional, Homo sapiens
Details in all cases: Homo sapiens, read-out: Cell Viability; for viability at 10 µM: Concentration 10 uM; for viability at 1 µM: Concentration 1 uM

For assay [1], the system named is Colon cancer organoid. Briefly: Targeting of F14 CAF-induced therapy resistance in O23 CRC organoid-stroma co-culture. Cell viability is reported with SN-38.
Assay [2] concerns Colon cancer organoid. Description: Targeting of F14 CAF-induced therapy resistance in O14 CRC organoid-stroma co-culture. Cell viability is reported with Gefitinib.
The test system of assay [3] is Colon cancer organoid. Description: Targeting of F14 CAF-induced therapy resistance in O23 CRC organoid-stroma co-culture. Cell viability is reported without Gefitinib.
Assay [4] relates to Colon cancer organoid. Description: Targeting of F14 CAF-induced therapy resistance in O14 CRC organoid-stroma co-culture. Cell viability is reported without Gefitinib.
Assay [5] relates to Colon cancer organoid. Description: Targeting of F14 CAF-induced therapy resistance in O23 CRC organoid-stroma co-culture. Cell viability is reported with Gefitinib.

Regarding `Nc1nc(NCc2ccccc2)nc(-c2ccccc2CO)n1` [Ogerin], the viability at 10 µM in assay [1] worked out at 106%; in assay [2], 26.8%; in assay [3], 222%; in assay [4] it was 123%; in assay [5], 71.3%.
With `CN(c1ccnc(CNc2nc(Nc3ccc4c(c3)CC(=O)N4)ncc2C(F)(F)F)n1)S(C)(=O)=O` [PF-00911705], the viability at 1 µM stood at 73.5% in assay [1]; 48% in assay [2]; 87.4% in assay [3]; 87% in assay [4]; 34.6% in assay [5].
`CC(=O)NCC(=O)N1[C@@H]2CC[C@H]1c1ccc(Nc3ncc(C(F)(F)F)c(NC4CCC4)n3)cc12` [PF-03814735]: the viability at 10 µM was 48.4% in assay [1]; 4.93% in assay [2]; 33.7% in assay [3]; 14.8% in assay [4]; 25.7% in assay [5].
Turning to `COc1ccc2cc(OCC3(C(=O)O)CN(C(=O)c4ccc(F)cc4)C3)ccc2c1` [PF-04418948], the viability at 1 µM in assay [1] came out at 81.3%; in assay [2] it was 43%; in assay [3] it was 142%; in assay [4], 141%; in assay [5] it was 40.3%.
On to `O=C(c1ccc(F)cc1)N1CC(COc2ccc(Br)cc2)(C(=O)O)C1` [PF-04475866], for which the viability at 1 µM worked out at 85.2% in assay [1]; 36.4% in assay [2]; 118% in assay [3]; 159% in assay [4]; 66.8% in assay [5].
As for `C[C@H](c1ccc(F)cc1)N(Cc1cccc(C(=O)O)c1)C(=O)c1cnc2ccccc2c1` [PF-05105679], the viability at 10 µM in assay [1] is 98.3%; in assay [2] it was 61.2%; in assay [3], 104%; in assay [4], 126%; in assay [5], 45.6%.
On to `C[C@H](c1ccc(F)cc1)N(Cc1ccc(Cl)c(C(=O)O)c1)C(=O)c1cnc2ccccc2c1` [PF-05257137], for which the viability at 10 µM in assay [1] was found to be 93.8%; in assay [2] it was 51.5%; in assay [3] it was 81.5%; in assay [4] it was 84%; in assay [5] it was 41.2%.
Regarding `Cc1noc(C)c1-c1cnc2c(-c3ccc(C(=O)O)cc3)cn([C@@H](C)c3ccccn3)c2c1` [PLX-51107], the viability at 10 µM is 62.8% in assay [1]; 6.08% in assay [2]; 109% in assay [3]; 17.8% in assay [4]; 78.8% in assay [5].
Regarding `Cn1cc(CNCC2CCN(c3ncc(C(=O)NO)cn3)CC2)c2ccccc21` [QUISINOSTAT], the viability at 10 µM in assay [1] turned out to be 1.67%; in assay [2] it was 0.22%; in assay [3], 11.7%; in assay [4], 0.685%; in assay [5] it was 6.71%.
Consider `O=C(CCCCCCNC(=O)c1cnc(N(c2ccccc2)c2ccccc2)nc1)NO` [RICOLINOSTAT], for which the viability at 10 µM was determined as 43.7% in assay [1]; 83% in assay [2]; 108% in assay [3]; 141% in assay [4]; 81.3% in assay [5].
The matching figures for `C=CC(=O)Nc1ccc2[nH]c(=O)n(C3CCN(Cc4ccc(-c5ccc6c(c5)NC(=O)CO6)cc4)CC3)c2c1` [RL2578]: 65.6%, 33.2%, 106%, 101% and 55.4%.
Turning to `Cn1cnc2c(F)c(Nc3ccc(Br)cc3Cl)c(C(=O)NOCCO)cc21` [SELUMETINIB], the viability at 10 µM was 48.4% in assay [1]; 22.1% in assay [2]; 62.9% in assay [3]; 51.6% in assay [4]; 27.6% in assay [5].
Take `CS(=O)(=O)N1CCCC(NC(=O)[C@H](CCC2CCCCC2)NC(=O)c2ccc(CNC(=O)c3cnc4ccccn34)cc2)C1` (stereo not given in full) [SR-302]: the viability at 1 µM in assay [1] was found to be 54.1%; in assay [2], 37.1%; in assay [3], 126%; in assay [4] it was 101%; in assay [5], 69.8%.
Take `Nc1c(C(=O)NCc2ccc(C(=O)NCCCC3CCCCC3)cc2)cnn1-c1ccccc1` [SR-318]: the viability at 1 µM was found to be 77.6% in assay [1]; 41.3% in assay [2]; 166% in assay [3]; 85% in assay [4]; 58.8% in assay [5].
On the same counts, the results for `O=C(NCCCC1CCCCC1)c1ccc(CNC(=O)c2cnn(-c3ccccc3)c2C(F)(F)F)cc1` [SR-321] are 78%, 23.5%, 138%, 92% and 48.4%.
Turning to `O=C1c2ccc(Nc3ccc(F)cc3F)cc2CCc2ccc(OC[C@H](O)CO)cc21` [Skepinone-L], the viability at 10 µM in assay [1] came out at 77.4%; in assay [2], 56.2%; in assay [3], 143%; in assay [4], 153%; in assay [5], 72.8%.
On the same counts, the results for `CN1CCN(C(=O)C(C)(C)c2ccc(C(=O)Nc3cn4cc(-c5cc(C(C)(C)C)cc(C(C)(C)C)c5)ccc4n3)cc2)CC1` [T3-CLK-N] are 63.2%, 53.2%, 81.4%, 112% and 28.2%.
On the same counts, the results for `CN1CCN(C(=O)C(C)(C)c2ccc(C(=O)Nc3cn4cc(-c5ccncc5)ccc4n3)cc2)CC1` [T3-CLK] are 18.9%, 7.96%, 27.9%, 38.4% and 12.1%.
For `COc1cccc(CNC(=O)c2nc3scc(COCc4ccc(C(=O)O)cc4)c3c(=O)[nH]2)c1` [T-26c], the viability at 1 µM in assay [1] worked out at 62.7%; in assay [2], 60%; in assay [3], 98.3%; in assay [4], 173%; in assay [5], 68.3%.
Take `COc1cccc(CNC(=O)c2nc3scc(CN(C)Cc4ccccc4)c3c(=O)[nH]2)c1` [T-26f]: the viability at 10 µM in assay [1] was found to be 67.3%; in assay [2] it was 63.8%; in assay [3], 98.9%; in assay [4] it was 112%; in assay [5], 45.7%.
For `COc1cccc2c1c(O)c(C(=O)N(C)c1ccc(C(F)(F)F)cc1)c(=O)n2C` [TASQUINIMOD], the viability at 10 µM in assay [1] is 83%; in assay [2] it was 61.6%; in assay [3] it was 99.2%; in assay [4], 80.1%; in assay [5] it was 47.3%.
Consider `CC(C)CC(=O)N1CCc2nc(-c3ccc(Br)cc3)nc(N(C)Cc3ccccc3)c2C1` [THPP-1-NC], for which the viability at 1 µM is 70.5% in assay [1]; 39.6% in assay [2]; 127% in assay [3]; 95.7% in assay [4]; 47.3% in assay [5].
The matching figures for `COCCOc1nc(-c2ccc(Cl)nc2)nc2c1CN(C(=O)c1ncn3ccccc13)CC2` [THPP-1]: 58.4%, 37.5%, 141%, 100% and 47.7%.
Turning to `Cc1cnc(-c2cc(Cl)ccc2F)cc1-n1c(=O)n(CC(N)=O)c2cnccc21` [TP-008], the viability at 10 µM in assay [1] was found to be 94%; in assay [2], 43.1%; in assay [3] it was 147%; in assay [4], 114%; in assay [5] it was 43.8%.
On the same counts, the results for `Cn1nc(C(F)(F)F)cc1-c1cnc(N2CCc3cc(S(=O)(=O)Nc4c(F)cc(Cl)cc4F)cc(N4CCCC4=O)c32)nc1` [TP-020] are 92.4%, 61.7%, 133%, 95% and 65.7%.
With `Nc1cnc(N2CCc3cc(S(=O)(=O)Nc4c(F)cc(Cl)cc4F)cc(N4CCCC4=O)c32)nc1` [TP-020n], the viability at 1 µM in assay [1] stood at 64.8%; in assay [2] it was 71.3%; in assay [3], 115%; in assay [4], 104%; in assay [5], 45.8%.
For the molecule `N#Cc1ccc(Nc2ccc3[nH]c(=O)[nH]c3c2)c(Cl)c1` [TP-021n], the viability at 1 µM turned out to be 63.2% in assay [1]; 59.2% in assay [2]; 161% in assay [3]; 115% in assay [4]; 47.2% in assay [5].
In the case of `Cc1cc(-n2nc(Cc3cc(F)cc(C(F)(F)F)c3)nc2C)ccc1C(N)=O` [TP-024], the viability at 10 µM came out at 81% in assay [1]; 49.8% in assay [2]; 153% in assay [3]; 110% in assay [4]; 79% in assay [5].
Turning to `Cc1nc(Cc2cccc(C(F)(F)F)c2)sc1-c1ccc(C(N)=O)nc1` [TP-024n], the viability at 1 µM amounted to 93.5% in assay [1]; 81.1% in assay [2]; 178% in assay [3]; 123% in assay [4]; 43.7% in assay [5].
As for `CN1C(=O)[C@@H](N2CCc3cn(Cc4ccccc4)nc3C2=O)COc2ccccc21` [TP-030-1], the viability at 1 µM in assay [1] is 66.7%; in assay [2], 40.8%; in assay [3], 138%; in assay [4], 125%; in assay [5], 56%.
